Measurements: US20240092791A1, “DIHYDROFUROPYRIDINE DERIVATIVES AS RHO-KINASE INHIBITORS” (CHIESI FARMACEUTICI S.P.A., priority 2020, published 2024)

Assays:
Rho kinase 1 (ROCK1) = Rho kinase 1 (ROCK1) (Homo sapiens, UniProt Q13464); assay: In vitro inhibitory activity assay ROCK1 (ADP-Glo); format: biochemical; settings: ATP 200 μM, Cheng-Prusoff from IC50; read-out: ROCK 1 (Ki, range of activity)
Experimental: (§1) The effectiveness of compounds of the present invention to inhibit Rho kinase activity can be determined in a 10 μl assay containing 40 mM Tris pH7.5, 20 mM MgCl2 0.1 mg/mL BSA, 50 μM DTT and 2.5 μM peptide substrate (Myelin Basic Protein) using an ADP-Glo kit (Promega). Compounds were dissolved in DMSO such that the final concentration of DMSO was 1% in the assay. All reactions/incubations are performed at 25° C. Compound (2 ul) and either Rho kinase 1 or 2 (4 μl) were mixed and incubated for 30 mins. Reactions were initiated by addition of ATP (4μ1) such that the final concentration of ATP in the assay was 200 μM. After a 1 hour incubation 10 μl of ADP-Glo Reagent was added and after a further 1 hour incubation 20 ul of Kinase Detection Buffer was added and the mixture incubated for a further 45 minutes. The luminescent signal was measured on a luminometer. […] Compounds were tested in dose-response format and the inhibition of kinase activity was calculated at each concentration of compound. To determine the IC50 (concentration of compound required to inhibit 50% of the enzyme activity) data were fit to a plot of % inhibition vs Log10 compound concentration using a sigmoidal fit with a variable slope and fixing the maximum to 100% and the minimum to 0%. To determine the Ki values the Cheng-Prusoff equation was utilized (Ki=IC50/(1+[S]/Km).

Rho kinase 2 (ROCK2) = Rho kinase 2 (ROCK2) (Homo sapiens, UniProt O75116); assay: In vitro inhibitory activity assay ROCK2 (ADP-Glo); format: biochemical; settings: ATP 200 μM, Cheng-Prusoff from IC50; read-out: ROCK2 (Ki, range of activity)
Experimental: as §1

PKA = PKA (Homo sapiens, UniProt P17612); assay: In vitro inhibitory activity assay for PKA (ADP-Glo), reported as selectivity ratio vs ROCK2; format: biochemical; settings: Ki value for PKA divided by Ki value of ROCK2
Experimental: The effectiveness of compounds of the present invention to inhibit PKA activity can be determined in a 10 μl assay containing 40 mM Tris pH7.5, 20 mM MgCl2 0.1 mg/ml BSA, 50 μM DTT and 260 μM peptide substrate (kemptide) using an ADP-Glo kit (Promega). Compounds were dissolved in DMSO such that the final concentration of DMSO was 1% in the assay. All reactions/incubations are performed at 25° C. Compound and PKA enzyme (6 μl) were mixed and incubated for 30 mins. Reactions were initiated by addition of ATP (4 μl ) such that the final concentration of ATP in the assay was 10 μM. After a 30 minute incubation 10 μl of ADP-Glo Reagent was added and after a further 1 hour incubation 20 μl of Kinase Detection Buffer was added and the mixture incubated for a further 45 minutes. The luminescent signal was measured on a luminometer. […] Compounds were tested in dose-response format and the inhibition of kinase activity was calculated at each concentration of compound. To determine the IC50 (concentration of compound required to inhibit 50% of the enzyme activity) data were fit to a plot of % inhibition vs Logio compound concentration using a sigmoidal fit with a variable slope and fixing the maximum to 100% and the minimum to 0%. To determine the Ki values the Cheng-Prusoff equation was utilized (Ki=IC50/(1+[S]/Km).
In vitro inhibitory activities for PKA were reported as selectivity ratio vs. ROCK-2.

[1] = tested on: cch-evoked bronchoconstriction; assay: Experimental bronchospasm (carbachol-induced bronchoconstriction, Konzett & Roessler); format: in vivo, Male CD Sprague Dawley rats; settings: iv, rat, 1 hour after administration, carbachol 80 μg/kg i.v., read-out: Inhibition % (±s.e. mean) of cch-evoked bronchoconstriction; for inhibition in vivo at 0.01 mg/kg: dose 10 μg/Kg intratracheal; for inhibition in vivo at 0.003 mg/kg: dose 3 μg/Kg intratracheal
Experimental: Male CD Sprague Dawley rats (220-250 g) were purchased from Charles River Laboratories Italy (Calco, Lecco). Prior to use animals were acclimated for at least 5 days 20 to the local vivarium conditions (room temperature: 20-24° C.; relative humidity: 40-70%), having free access to standard rat chow and softened tap water. All the procedures were performed in animal operating rooms according to ethical guidelines for the conduct of animal research (D. L.vo 116/92).
Rats were anaesthetized with a combination of anesthetics (Zoletil 20 mg/kg+Xylazine 5 mg/kg, ip) for the i.t. administration. A laryngoscope was moved forward into the mouth to visualize the trachea and guide the insertion of the tip of a custom-made small diameter cannula directly into the trachea and located 1-2 mm above the bifurcation.
In order to assess the residual inhibitory activity of test compounds 1 hour after their administration, rats were surgically prepared. Body temperature was kept constant at 37° C. by a heated blanket.
The trachea was cannulated and the lungs were ventilated artificially with a constant volume ventilator (rodent ventilator mod. 7025, Ugo Basile, Comerio, Varese, Italy) at a frequency of 80 strokes/min and at a tidal volume of 10 ml/kg. To avoid spontaneous breathing, the animals were injected intravenously (i.v.) with pancuronium bromide (2 mg/kg).
Bronchoconstriction was induced by the i.v. injection of carbachol (cch) 80 μg/kg. In control experiments, repeated injections of this dose produced reproducible short-lasting (1-2 min duration) bronchospasms. Bronchoconstriction, quantified as a reduction of tidal volume, was evaluated according to the method described by Konzett & Roessler (1). Systemic blood pressure and changes in airway resistance were monitored with a digital pressure transducer.
After stabilisation of artificial breathing and blood pressure, animals were injected (i.v.) with cch every 3 min, until 3 stable and reproducible basal responses were obtained. […] The effect of test compounds was 15 expressed as % inhibition of cch-evoked bronchoconstriction in time-matched, vehicle-treated, animals (controls).
Tested compounds were dissolved in dH2O and 1% Tween-80 or 0,001% HCl and further diluted to target concentrations. Tested compounds were instilled locally into the trachea in a volume of 125 μl.
All data are presented as mean±s.e.mean. The % inhibition of experimental bronchospasm was calculated comparing the drug-treated with the vehicle-treated control animals. Data analysis was performed using GraphPad Prism software.

Rho kinase 2 (ROCK2), sequence (O75116 whole entry): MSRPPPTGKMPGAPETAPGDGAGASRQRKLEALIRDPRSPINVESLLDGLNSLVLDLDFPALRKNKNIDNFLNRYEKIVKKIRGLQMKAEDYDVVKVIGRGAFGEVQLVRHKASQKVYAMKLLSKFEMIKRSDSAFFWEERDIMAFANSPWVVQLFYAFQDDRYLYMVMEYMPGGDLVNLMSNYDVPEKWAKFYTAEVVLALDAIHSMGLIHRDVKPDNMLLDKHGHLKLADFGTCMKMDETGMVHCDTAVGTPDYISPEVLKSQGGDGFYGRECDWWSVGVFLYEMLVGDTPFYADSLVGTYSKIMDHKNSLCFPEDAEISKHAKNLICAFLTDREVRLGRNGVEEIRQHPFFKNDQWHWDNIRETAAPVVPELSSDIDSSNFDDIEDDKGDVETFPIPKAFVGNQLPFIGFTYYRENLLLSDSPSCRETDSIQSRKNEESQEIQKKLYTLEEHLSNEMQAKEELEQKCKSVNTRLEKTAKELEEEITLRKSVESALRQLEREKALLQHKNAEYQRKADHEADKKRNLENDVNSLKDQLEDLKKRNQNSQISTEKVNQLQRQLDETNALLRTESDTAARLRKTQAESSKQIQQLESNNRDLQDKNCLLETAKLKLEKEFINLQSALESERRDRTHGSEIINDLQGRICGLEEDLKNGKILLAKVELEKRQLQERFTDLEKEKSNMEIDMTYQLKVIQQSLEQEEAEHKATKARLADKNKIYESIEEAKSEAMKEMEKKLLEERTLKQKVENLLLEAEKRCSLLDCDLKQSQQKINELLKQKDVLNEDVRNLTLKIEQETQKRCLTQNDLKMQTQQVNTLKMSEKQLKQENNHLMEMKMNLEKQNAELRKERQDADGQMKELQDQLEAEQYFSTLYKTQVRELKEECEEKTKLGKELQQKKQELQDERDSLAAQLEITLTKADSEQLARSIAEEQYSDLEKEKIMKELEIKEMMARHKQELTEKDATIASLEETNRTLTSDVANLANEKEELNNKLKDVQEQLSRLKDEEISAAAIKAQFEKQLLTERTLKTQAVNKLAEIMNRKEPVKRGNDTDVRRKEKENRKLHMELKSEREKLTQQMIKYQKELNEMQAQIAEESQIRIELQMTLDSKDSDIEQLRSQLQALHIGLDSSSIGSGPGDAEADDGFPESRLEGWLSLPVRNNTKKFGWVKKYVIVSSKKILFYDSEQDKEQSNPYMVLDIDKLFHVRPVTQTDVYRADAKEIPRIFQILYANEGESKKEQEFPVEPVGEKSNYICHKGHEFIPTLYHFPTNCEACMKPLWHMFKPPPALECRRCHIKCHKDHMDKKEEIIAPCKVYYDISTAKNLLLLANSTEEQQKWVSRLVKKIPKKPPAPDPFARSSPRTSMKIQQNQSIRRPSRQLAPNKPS
Rho kinase 1 (ROCK1), sequence (Q13464 whole entry): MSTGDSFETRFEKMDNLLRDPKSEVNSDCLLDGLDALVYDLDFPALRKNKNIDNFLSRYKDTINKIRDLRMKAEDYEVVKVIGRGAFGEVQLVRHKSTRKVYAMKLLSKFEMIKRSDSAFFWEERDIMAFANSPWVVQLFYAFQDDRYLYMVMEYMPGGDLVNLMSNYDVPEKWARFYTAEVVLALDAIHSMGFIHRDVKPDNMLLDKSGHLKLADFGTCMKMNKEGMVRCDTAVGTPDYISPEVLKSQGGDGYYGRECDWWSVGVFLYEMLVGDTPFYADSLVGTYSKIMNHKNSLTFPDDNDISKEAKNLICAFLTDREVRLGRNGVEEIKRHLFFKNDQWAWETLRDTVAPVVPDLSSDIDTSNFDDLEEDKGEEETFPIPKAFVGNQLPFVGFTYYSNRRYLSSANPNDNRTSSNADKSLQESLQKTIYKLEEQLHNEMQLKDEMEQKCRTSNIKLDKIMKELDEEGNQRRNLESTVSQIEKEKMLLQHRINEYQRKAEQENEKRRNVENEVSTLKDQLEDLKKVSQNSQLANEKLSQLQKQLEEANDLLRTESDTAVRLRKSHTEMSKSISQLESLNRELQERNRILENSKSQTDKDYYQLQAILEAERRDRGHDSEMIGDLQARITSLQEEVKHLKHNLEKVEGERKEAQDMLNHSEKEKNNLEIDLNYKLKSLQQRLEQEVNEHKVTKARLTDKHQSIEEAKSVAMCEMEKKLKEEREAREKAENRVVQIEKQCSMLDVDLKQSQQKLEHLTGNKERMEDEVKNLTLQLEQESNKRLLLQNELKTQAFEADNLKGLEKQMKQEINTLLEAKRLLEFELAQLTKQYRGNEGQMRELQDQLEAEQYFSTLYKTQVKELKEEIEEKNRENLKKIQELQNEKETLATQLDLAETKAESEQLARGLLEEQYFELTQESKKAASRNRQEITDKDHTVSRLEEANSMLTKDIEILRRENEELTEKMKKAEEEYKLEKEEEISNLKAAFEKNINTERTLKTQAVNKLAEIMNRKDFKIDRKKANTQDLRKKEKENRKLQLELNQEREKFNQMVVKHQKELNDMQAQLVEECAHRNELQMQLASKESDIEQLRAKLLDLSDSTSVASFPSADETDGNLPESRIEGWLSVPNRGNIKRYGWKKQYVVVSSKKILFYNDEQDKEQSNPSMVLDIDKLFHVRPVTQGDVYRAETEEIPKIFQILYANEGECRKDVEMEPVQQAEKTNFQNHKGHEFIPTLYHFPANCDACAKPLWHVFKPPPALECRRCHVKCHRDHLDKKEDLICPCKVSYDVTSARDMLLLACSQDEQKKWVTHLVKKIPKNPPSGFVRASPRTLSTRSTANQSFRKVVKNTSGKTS

| Ki (Rho kinase 1 (ROCK1)) [nM] | Ki (Rho kinase 2 (ROCK2)) [nM] | Ratio (PKA/ROCK2) (PKA) | Compound | inhibition in vivo at 0.01 mg/kg [1] [%] | inhibition in vivo at 0.003 mg/kg [1] [%] |
| --- | --- | --- | --- | --- | --- |
| ≤ 3 | ≤ 3 | *** (ratio≥10) | CNC1(COc2ccc(NC(=O)c3cccc(CNc4ncc(-c5ccnc(N)n5)c5c4CCO5)c3)nc2)CCOCC1 [Example 80, 3-(((7-(2-aminopyrimidin-4-yl)-2,3-dihydrofuro[3,2-c]pyridin-4-yl)amino)methyl)-N-(5-((4-(methylamino)tetrahydro-2H-pyran-4-yl)methoxy)pyridin-2-yl)benzamide] | 85.7 ± 0.8 | – |
| ≤ 3 | ≤ 3 | *** (ratio≥10) | CNCCNc1ccc(NC(=O)c2cccc(CNc3ncc(-c4ccnc(N)n4)c4c3CCO4)c2)nc1 [Example 70, 3-(((7-(2-aminopyrimidin-4-yl)-2,3-dihydrofuro[3,2-c]pyridin-4-yl)amino)methyl)-N-(5-((2-(methylamino)ethyl)amino)pyridin-2-yl)benzamide] | 62.2 ± 7 | – |
| ≤ 3 | ≤ 3 | *** (ratio≥10) | Nc1nccc(-c2cnc(NCc3cccc(C(=O)Nc4ccc(OC[C@]5(F)CCNC5)cn4)c3)c3c2OCC3)n1 [Example 79, (S)-3-(((7-(2-aminopyrimidin-4-yl)-2,3-dihydrofuro[3,2-c]pyridin-4-yl)amino)methyl)-N-(5-((3-fluoropyrrolidin-3-yl)methoxy)pyridin-2-yl)benzamide] | 58 ± 6 | – |
| ≤ 3 | ≤ 3 | *** (ratio≥10) | CN1CCN(C)C(COc2ccc(NC(=O)c3cccc(CNc4ncc(-c5ccnc(N)n5)c5c4CCO5)c3)nc2)C1 (single isomer, unassigned) [Example 82, 3-(((7-(2-aminopyrimidin-4-yl)-2,3-dihydrofuro[3,2-c]pyridin-4-yl)amino)methyl)-N-(5-((1,4-dimethylpiperazin-2-yl)methoxy)pyridin-2-yl)benzamide] | 69.7 ± 3.4 | – |
| ≤ 3 | ≤ 3 | *** (ratio≥10) | CN1CCN(Cc2ccc(NC(=O)c3cccc(CNc4ncc(-c5ccnc(N)n5)c5c4CCO5)c3)nc2)CC1 [Example 78, 3-(((7-(2-aminopyrimidin-4-yl)-2,3-dihydrofuro[3,2-c]pyridin-4-yl)amino)methyl)-N-(5-((4-methylpiperazin-1-yl)methyl)pyridin-2-yl)benzamide] | 68.8 ± 8.6 | – |
| ≤ 3 | ≤ 3 | *** (ratio≥10) | CNCCOc1ccc(NC(=O)c2cccc(CNc3ncc(-c4ccnc(N)n4)c4c3CCO4)c2)nc1 [Example 73, 3-(((7-(2-aminopyrimidin-4-yl)-2,3-dihydrofuro[3,2-c]pyridin-4-yl)amino)methyl)-N-(5-(2-(methylamino)ethoxy)pyridin-2-yl)benzamide] | 76.6 ± 6 | – |
| ≤ 3 | ≤ 3 | *** (ratio≥10) | Nc1nccc(-c2cnc(NCc3cccc(C(=O)Nc4ccc(N5CCNCC5)cn4)c3)c3c2OCC3)n1 [Example 53, 3-(((7-(2-aminopyrimidin-4-yl)-2,3-dihydrofuro[3,2-c]pyridin-4-yl)amino)methyl)-N-(5-(piperazin-1-yl)pyridin-2-yl)benzamide] | 70.7 ± 3.4 | – |
| ≤ 3 | ≤ 3 | *** (ratio≥10) | CN(C)CCC(=O)N1CCN(c2ccc(NC(=O)c3cccc(CNc4ncc(-c5ccnc(N)n5)c5c4CCO5)c3)nc2)CC1 [Example 66, 3-(((7-(2-aminopyrimidin-4-yl)-2,3-dihydrofuro[3,2-c]pyridin-4-yl)amino)methyl)-N-(5-(4-(3-(dimethylamino)propanoyl)piperazin-1-yl)pyridin-2-yl)benzamide] | 79.4 ± 7.3 | – |
| ≤ 3 | ≤ 3 | *** (ratio≥10) | CNCc1ccc(NC(=O)c2cccc(CNc3ncc(-c4ccnc(N)n4)c4c3CCO4)c2)nc1 [Example 84, 3-(((7-(2-Aminopyrimidin-4-yl)-2,3-dihydrofuro[3,2-c]pyridin-4-yl)amino)methyl)-N-(5-((methylamino)methyl)pyridin-2-yl)benzamide] | 89.5 ± 2 | – |
| ≤ 3 | ≤ 3 | *** (ratio≥10) | C[C@@H]1CNCCN1c1ccc(NC(=O)c2cccc(CNc3ncc(-c4ccnc(N)n4)c4c3CCO4)c2)nc1 [Example 69, (R)-3-(((7-(2-aminopyrimidin-4-yl)-2,3-dihydrofuro[3,2-c]pyridin-4-yl)amino)methyl)-N-(5-(2-methylpiperazin-1-yl)pyridin-2-yl)benzamide] | 74.8 ± 7.8 | – |
| ≤ 3 | ≤ 3 | *** (ratio≥10) | CN(C)CCNc1ccc(NC(=O)c2cccc(CNc3ncc(-c4ccnc(N)n4)c4c3CCO4)c2)nc1 [Example 77, 3-(((7-(2-aminopyrimidin-4-yl)-2,3-dihydrofuro[3,2-c]pyridin-4-yl)amino)methyl)-N-(5-((2-(dimethylamino)ethyl)amino)pyridin-2-yl)benzamide] | – | 79 |
| ≤ 3 | ≤ 3 | *** (ratio≥10) | CN1C[C@H]2C[C@@H]1CN2c1ccc(NC(=O)c2cccc(CNc3ncc(-c4ccnc(N)n4)c4c3CCO4)c2)nc1 [Example 74] | – | 77.7 ± 4 |
